Measurements taken from patent US10450341B2, “Cyclic di-nucleotides as modulators of STING” (GlaxoSmithKline Intellectual Property Development Limited, priority 2014, dated 2019).

Biological target: STING (Homo sapiens, UniProt Q86WV6)
Experiment: STING binding assay similar to that described by Li et al

STING, sequence (Q86WV6 whole entry H232R, species assumed): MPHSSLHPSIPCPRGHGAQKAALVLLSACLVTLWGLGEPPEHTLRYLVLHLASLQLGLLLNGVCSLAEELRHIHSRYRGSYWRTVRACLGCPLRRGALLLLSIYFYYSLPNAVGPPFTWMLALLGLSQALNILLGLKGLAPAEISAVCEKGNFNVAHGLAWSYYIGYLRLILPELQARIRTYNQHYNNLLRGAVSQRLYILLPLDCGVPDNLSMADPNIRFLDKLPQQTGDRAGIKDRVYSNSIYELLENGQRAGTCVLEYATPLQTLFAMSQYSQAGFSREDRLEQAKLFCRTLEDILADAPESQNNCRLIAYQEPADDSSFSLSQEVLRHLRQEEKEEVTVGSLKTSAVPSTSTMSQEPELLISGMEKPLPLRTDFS

- IC50: < 100 µM
Compound: Nc1nc2c(ncn2[C@@H]2C[C@@H]3COP(=O)(O)O[C@H]4[C@@H](F)[C@H](n5cnc6c(N)ncnc65)O[C@@H]4COP(=O)(O)O[C@@H]2[C@@H]3O)c(=O)[nH]1 [Example 4, (1S,6R,8R,9R,10R,15R,17R,18R)-17-(2-Amino-6-oxo-6,9-dihydro-1H-purin-9-yl)-8-(6-amino-9H-purin-9-yl)-9-fluoro-3,12,18-trihydroxy-2,4,7,11,13-pentaoxa-3λ^5,12λ^5-diphosphatricyclo[13.2.1.0^6,10]octadecane-3,12-dione]
